The values below come from patent US20230034359A1, “GENERATION OF MATURE KUPFFER CELLS” (AGENCY FOR SCIENCE, TECHNOLOGY AND RESEARCH, priority 2018, published 2023).

What is called IC50 is the midpoint of a concentration-inhibition curve. In general, viability refers to a per cent measure of how many cells are alive, often set against a control.

For data set [1], the system named is pHeps in co-culture with pKCs. The experiment in a line: Alamar Blue cell viability, pHeps-pKCs co-culture. The following applies: Homo sapiens, 24 h. It is filed as cell-based, human. On the procedure: (§1) For co-cultures, NL-Mφ, pKCs or iKCs were seeded at a density of 12,000 to 15,000 cells per well on Collagen I-coated 96-well plates. The cells were seeded in their respective media for 24 hours. Following cell attachment, medium was removed and iHeps or pHeps were seeded at a density of 2.5 times the density of the NL-Mφ/pKCs/iKCs in William's E media containing supplemental cocktail B. In some experiments, Advanced DMEM with supplement cocktail B (Media A) was used. The matching hepatocyte mono-culture controls were seeded in the same media and at the same density as the co-cultures.
(§2) Cell viability of differentiated hepatocytes was measured 24 hours after treatment with drugs using Alamar Blue® cell viability assay (Life Technologies) according to manufacturer's instructions. The following drugs were used for the cell viability assays: Acetaminophen, Trovafloxacin and Levofloxacin (all drugs from Sigma). Stock solutions of drugs were prepared in DMSO and then diluted in media to obtain desired working concentrations. Controls were treated with solvent alone (in absence of test compounds) and considered as 100% viability value.
(In general: Resazurin is reduced to fluorescent resorufin, in cell work by metabolically active cells.)

The test system of data set [2] is pHeps in co-culture with iKCs. The data set is described as follows: Alamar Blue cell viability, pHeps-iKCs co-culture. Type of data set: cell-based, human. The following applies: Homo sapiens, 24 h. On the procedure: as §1, §2
The next data set concerns pHeps mono-culture. The data set is described as follows: Alamar Blue cell viability, pHeps mono-culture. The following applies: Homo sapiens, 24 h. Type of data set: cell-based, human. On the procedure: as §1, §2
For data set [3], the system named is pHeps in co-culture with NL-Mφ. It is filed as cell-based, human. As to the method:
as §1, §2

The test system of data set [4] is iHeps in co-culture with iKCs. The data set is described as follows: in vitro. It is filed as cell-based, human. As to the method:
as §1, §2

The subject of data set [5] is iHeps mono-culture. The data set is described as follows: Alamar Blue cell viability, iHeps mono-culture. It is filed as cell-based, human. The following applies: Homo sapiens; iHeps mono-culture. As to the method:
as §1, §2

In data set [6] the test system is iHeps-iKCs co-culture. The experiment in a line: Cytokine production (ELISA) in cholestasis model. Type of data set: cell-based, human. The following applies: 100 ng/ml LPS and 10 μM CPZ, 24 hours. On the procedure:
(§3) Interleukin-6 (IL-6) and Tumor necrosis factor alpha (TNFα) levels in the media were measured using human IL-6 and TNFα enzyme-linked immunosorbent assay (ELISA) kits (Abcam) according to manufacturer's instructions.
(§4) Cells were incubated with 10 μM Fluorescein diacetate (FDA) and incubated for 30 minutes. The FDA-containing medium was removed and the cells were washed thrice with medium to remove any residual FDA. Images of bile acid accumulation were acquired using Olympus BX-DSU and quantified using Image J software and normalized to untreated control.
Background: An ELISA detects its analyte on a solid surface through an enzyme-linked reagent.

The subject of data set [7] is iHeps-iKCs co-culture. The data set is described as follows: Bile acid accumulation (FDA). The following applies: 100 ng/ml LPS and 10 μM CPZ, 24 hours; versus untreated control. It is filed as cell-based, human. As to the method: as §4
Data set [8] deals with BSEP, MDR1 and MRP1 mRNA in iHeps-iKCs co-culture. The data set is described as follows: qPCR of bile transporter genes in cholestasis model. Type of data set: cell-based, human. To be noted: CPZ treatment. As to the method: RNA was isolated using RNeasy Micro-kit (Qiagen, Hilden, Germany), RNA amount was determined using a NanoDrop™ ND-1000 Spectrophotometer (Life Technologies) and RNA was converted to cDNA using iScript cDNA synthesis kit (Bio-Rad Laboratories, Hercules, Calif., USA). 7000 Fast Real-Time PCR System (Applied Biosystems, Foster City, Calif., USA) was used for qPCR using primers commercially obtained from GeneCopoeia, Inc.
(Rockville, Md., USA). The expression levels of all marker genes were normalized to that of glyceraldehyde-3-phosphate dehydrogenase (GAPDH).
as §4
On the technique in general: In qPCR the cycle at which signal appears reflects the starting amount.

In data set [9] the test system is iHeps mono-culture. The data set is described as follows: Cholestasis model, mono-culture control. Type of data set: cell-based, human. To be noted: CPZ treatment. As to the method:
as §4

The nature of data set [10]: Alamar Blue cell viability, pHeps-pKCs co-culture. The following applies: human, pHeps in co-culture with pKCs. It is filed as cell-based, human. As to the method: as §1, §2
Data set [11] is described as follows: Alamar Blue cell viability, pHeps mono-culture. Type of data set: cell-based, human. The following applies: human, pHeps mono-culture. As to the method: as §1, §2
The nature of the next data set: in vitro. Type of data set: cell-based, human. The following applies: human. On the procedure:
as §1, §2

Data set [12] in a line: Alamar Blue cell viability, iHeps mono-culture. Type of data set: cell-based, human. To be noted: human, iHeps mono-culture (stem-cell derived). As to the method: as §1, §2
A short description of data set [13]: Alamar Blue cell viability, pHeps-iKCs co-culture. The following applies: human, pHeps in co-culture with iKCs; 100 μM, pHeps-iKCs co-culture. It is filed as cell-based, human. As to the method:
as §1, §2

A further data set relates to iKCs. The data set is described as follows: LPS-induced cytokine production (ELISA) in iKCs. It is filed as cell-based, human. Details: TNFα production upon LPS stimulation: unit not given here. On the procedure:
as §3

In another data set the test system is pKCs. The data set is described as follows: LPS-induced cytokine production (ELISA) in pKCs. It is filed as cell-based, human. As to the method:
as §3

The next data set has as its system NL-Mφ. The experiment in a line: LPS-induced cytokine production (ELISA) in NL-Mφ. Type of data set: cell-based, human. On the procedure:
as §3

The test system of a further data set is pHeps. The experiment in a line: LPS-induced cytokine production (ELISA) in pHeps. It is filed as cell-based, human. On the procedure:
as §3

Another data set has as its system KCs. To be noted: reference [46], cited from earlier work.
Setting [14] is: 100 ng/ml LPS for 16 hours, versus no LPS.

With `CC(=O)Nc1ccc(O)cc1` [APAP, Acetaminophen], the IC50 came to 12.5 mM in [1]; 25 mM in data set [2]; 45 mM in the data set on pHeps mono-culture; 27 mM in data set [4] (Homo sapiens, read-out: IC50 (cell viability)); 54 mM in the data set with iHeps mono-culture [5]. In addition, the “cell death, co-culture versus pHeps mono-culture” value in [3] is recorded as “No difference in cell death”. The “cell viability, donor-matched co-culture versus mono-culture” value in data set [4] is “no significant difference”.
Take `CN(C)CCCN1c2ccccc2Sc2ccc(Cl)cc21` [CPZ, Chlorpromazine]: in the data set with iHeps-iKCs co-culture [6], the “IL-6 production, fold compared to untreated control” value is reported as 4.5 fold and the “TNFα production, fold compared to untreated control” value was 6.5 fold. In addition, the bile acid accumulation entry with iHeps-iKCs co-culture [7] is given as “Significant bile acid accumulation”. Besides, in data set [8], the “mRNA expression of bile salt export pump (BSEP), fold change to untreated control” value is given as 0.3±0.1 folds; the “mRNA expression of multidrug resistance (MDR1), fold change to untreated control” value was found to be 0.4±0.2 folds; the “mRNA expression of multidrug resistance-associated protein 1 (MRP1), fold change to untreated control” value was determined as 0.5±0.2 folds. Further, the “bile acid accumulation, cytokine production and reduction in transporter gene expression” value in the data set with iHeps mono-culture [9] was “not in mono-culture”.
Regarding `C[C@H]1COc2c(N3CCN(C)CC3)c(F)cc3c(=O)c(C(=O)O)cn1c23` [Levofloxacin], the viability at 24 h (in data set [10]; in [11]; in “in vitro”; in data set [12]) was more than 90% throughout.
For the molecule `N[C@@H]1[C@H]2CN(c3nc4c(cc3F)c(=O)c(C(=O)O)cn4-c3ccc(F)cc3F)C[C@@H]12` [Trovafloxacin], the viability at 24 h, 100 µM in [10] (100 μM, pHeps-pKCs co-culture) is 53.8%; in data set [13], 55.8%; in data set [11] (100 μM), 73.8%. In addition, the “cell viability, co-culture versus mono-culture” value in [3] is listed as “No difference in cell viability”.
As to lipopolysaccharide [LPS], the results for the “IL-6 production upon LPS stimulation” value with iKCs, in the data set on pKCs and with KCs were 5200 pg/mL, 2018 pg/mL and 800 pg/mL, respectively. Besides, the “TNFα production upon LPS stimulation” value in the data set with iKCs was 10,000; in the data set with KCs (KCs), 4000 pg/mL. The “IL-6 level, LPS-treated” value is given as 5260 pg/million cells/24 h in the data set on iKCs (100 ng/ml LPS for 16 hours) and 3420 pg/million cells/24 h in the data set on pKCs (100 ng/ml LPS for 16 hours). For the same molecule, the figures for the “fold increase in IL-6 production” value with iKCs (setting [14]), with pKCs (setting [14]) and with NL-Mφ (setting [14]) were 35 fold, 25 folds and 103 folds, respectively. The “fold increase in TNFα production” value in the data set with iKCs (setting [14]) is reported as 33 folds; with pKCs (setting [14]), 35 folds; in the data set with NL-Mφ (100 ng/ml LPS, level without LPS not detectable) it was more than 1000 folds. Besides, in the data set with pHeps, the “TNFα production upon LPS activation” value is “below detectable levels”.
